This note sets out measurements from ChEMBL document CHEMBL1151152, “7-deoxy-6-epi-castanospermine, a trihydroxyindolizidine alkaloid glycosidase inhibitor from Castanospermum australe” (J Nat Prod, 1990).

SMILES strings stand for the structures. Active and inactive are the calls of the source. No cut-off for these calls is given here.

For assay [1], the system named is Aspergillus niger. The assay can be described thus: Inhibition of Aspergillus niger amyloglucosidase by competitive inhibition-based kinetic assay.
For assay [2], the system named is Aspergillus niger. The assay can be described thus: Inhibition of Aspergillus niger amyloglucosidase at 20 uM by competitive inhibition-based kinetic assay.
The test system of assay [3] is Aspergillus niger. Description: Inhibition of Aspergillus niger amyloglucosidase at 7 uM by competitive inhibition-based kinetic assay.
The species named for assay [4] is Bos taurus. Description: Inhibition of bovine epididymis beta-N-acetylglucosaminidase B up to 1 mM.
Assay [5] addresses T1, Beta-glucuronidase (Bos taurus) (UniProt A3KMY8).
T1 sequence (whole entry): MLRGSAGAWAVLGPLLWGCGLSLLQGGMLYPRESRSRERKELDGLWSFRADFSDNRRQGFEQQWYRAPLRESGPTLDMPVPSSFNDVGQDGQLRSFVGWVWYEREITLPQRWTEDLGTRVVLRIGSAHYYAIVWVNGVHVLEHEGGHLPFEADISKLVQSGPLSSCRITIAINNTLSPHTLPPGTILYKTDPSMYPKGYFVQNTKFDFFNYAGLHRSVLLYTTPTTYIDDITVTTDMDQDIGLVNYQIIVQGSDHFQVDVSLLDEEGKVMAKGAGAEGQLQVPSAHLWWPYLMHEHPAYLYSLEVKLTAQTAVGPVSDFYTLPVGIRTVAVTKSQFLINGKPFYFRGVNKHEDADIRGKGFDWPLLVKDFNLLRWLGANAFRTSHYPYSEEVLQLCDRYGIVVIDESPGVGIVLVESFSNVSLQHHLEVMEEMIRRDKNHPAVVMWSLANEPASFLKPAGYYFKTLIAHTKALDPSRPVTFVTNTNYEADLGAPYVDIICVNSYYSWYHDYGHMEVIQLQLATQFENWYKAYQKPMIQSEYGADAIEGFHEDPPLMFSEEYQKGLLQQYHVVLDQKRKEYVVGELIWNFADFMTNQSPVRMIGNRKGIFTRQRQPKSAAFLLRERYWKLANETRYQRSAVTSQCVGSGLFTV
The assay can be described thus: Inhibition of bovine liver beta-glucuronidase up to 1 mM.

Assay [6] has as its system Aspergillus niger. Description: Inhibition of Aspergillus niger beta-xylosidase up to 1 mM.
The species entered for assay [7] is Bos taurus. Description: Inhibition of bovine kidney alpha-L-fucosidase up to 1 mM.
Assay [8] deals with Vigna radiata var. radiata. The assay can be described thus: Inhibition of mung bean seedlings glucosidase 2 up to 1 mM.
The species entered for assay [9] is Bos taurus. Description: Inhibition of bovine liver beta-galactosidase.
The target of assay [10] is Sucrase-isomaltase, intestinal (Rattus norvegicus) (UniProt P23739). Description: Inhibition of Sprague-Dawley rat small intestine sucrase.
The subject of assay [11] is Saccharomyces cerevisiae. Description: Inhibition of yeast alpha-glucosidase.
Assay [12] has as its system Vigna radiata var. radiata. The assay can be described thus: Inhibition of mung bean seedlings glucosidase 1.
Assay [13] concerns Saccharomyces cerevisiae. Description: Inhibition of yeast alpha-glucosidase at 1 mM.
The subject of assay [14] is Vigna radiata var. radiata. The assay can be described thus: Inhibition of mung bean seedlings glucosidase 1 at 1 mM.
The target in assay [15] is Sucrase-isomaltase, intestinal (Rattus norvegicus) (UniProt P23739). Description: Inhibition of Sprague-Dawley rat small intestine sucrase at 1 mM.
For assay [16], the species on record is Bos taurus. The assay can be described thus: Inhibition of bovine liver beta-galactosidase at 1 mM.
In assay [17] the test system is Aspergillus niger. The assay can be described thus: Inhibition of Aspergillus niger amyloglucosidase at 230 uM by competitive inhibition-based kinetic assay.
For a further assay, the system named is Prunus dulcis. Description: Inhibition of almond beta-glucosidase up to 1 mM.
The subject of assay [18] is Aspergillus niger. The assay can be described thus: Inhibition of Aspergillus niger alpha-galactosidase up to 1 mM.
In the next assay the test system is Canavalia ensiformis. Description: Inhibition of jack bean alpha-mannosidase up to 1 mM.
Assay [19] concerns Aspergillus niger. The assay can be described thus: Inhibition of Aspergillus niger alpha-mannosidase up to 1 mM.

Sucrase-isomaltase, intestinal (Rattus norvegicus), sequence (P23739 1-1013 limits assumed): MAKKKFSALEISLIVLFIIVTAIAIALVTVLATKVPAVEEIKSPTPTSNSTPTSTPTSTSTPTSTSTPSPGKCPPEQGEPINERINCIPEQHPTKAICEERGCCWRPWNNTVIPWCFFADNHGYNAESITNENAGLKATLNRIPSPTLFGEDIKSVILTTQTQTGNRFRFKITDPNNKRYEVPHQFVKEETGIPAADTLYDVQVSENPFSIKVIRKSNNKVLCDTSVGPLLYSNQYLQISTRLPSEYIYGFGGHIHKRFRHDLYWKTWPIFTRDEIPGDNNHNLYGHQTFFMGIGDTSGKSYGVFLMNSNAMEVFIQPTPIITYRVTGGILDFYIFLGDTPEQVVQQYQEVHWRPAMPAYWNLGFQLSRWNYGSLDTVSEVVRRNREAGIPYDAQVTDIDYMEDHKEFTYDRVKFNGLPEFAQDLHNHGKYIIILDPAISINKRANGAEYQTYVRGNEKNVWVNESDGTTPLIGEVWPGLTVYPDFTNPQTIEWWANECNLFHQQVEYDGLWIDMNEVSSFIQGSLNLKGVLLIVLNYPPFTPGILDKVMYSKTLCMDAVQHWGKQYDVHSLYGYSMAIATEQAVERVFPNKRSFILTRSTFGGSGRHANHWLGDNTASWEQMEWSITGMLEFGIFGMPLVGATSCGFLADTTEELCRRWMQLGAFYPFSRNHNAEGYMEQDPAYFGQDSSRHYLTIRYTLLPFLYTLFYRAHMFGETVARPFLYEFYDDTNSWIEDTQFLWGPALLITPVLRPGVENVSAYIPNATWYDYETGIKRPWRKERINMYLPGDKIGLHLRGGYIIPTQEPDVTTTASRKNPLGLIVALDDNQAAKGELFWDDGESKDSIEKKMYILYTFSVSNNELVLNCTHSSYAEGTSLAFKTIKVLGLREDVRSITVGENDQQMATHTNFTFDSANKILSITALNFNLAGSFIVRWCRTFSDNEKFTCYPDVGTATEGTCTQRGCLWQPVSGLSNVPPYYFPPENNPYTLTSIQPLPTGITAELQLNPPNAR
Sucrase-isomaltase, intestinal (Rattus norvegicus), sequence (P23739 1014-1841 limits assumed): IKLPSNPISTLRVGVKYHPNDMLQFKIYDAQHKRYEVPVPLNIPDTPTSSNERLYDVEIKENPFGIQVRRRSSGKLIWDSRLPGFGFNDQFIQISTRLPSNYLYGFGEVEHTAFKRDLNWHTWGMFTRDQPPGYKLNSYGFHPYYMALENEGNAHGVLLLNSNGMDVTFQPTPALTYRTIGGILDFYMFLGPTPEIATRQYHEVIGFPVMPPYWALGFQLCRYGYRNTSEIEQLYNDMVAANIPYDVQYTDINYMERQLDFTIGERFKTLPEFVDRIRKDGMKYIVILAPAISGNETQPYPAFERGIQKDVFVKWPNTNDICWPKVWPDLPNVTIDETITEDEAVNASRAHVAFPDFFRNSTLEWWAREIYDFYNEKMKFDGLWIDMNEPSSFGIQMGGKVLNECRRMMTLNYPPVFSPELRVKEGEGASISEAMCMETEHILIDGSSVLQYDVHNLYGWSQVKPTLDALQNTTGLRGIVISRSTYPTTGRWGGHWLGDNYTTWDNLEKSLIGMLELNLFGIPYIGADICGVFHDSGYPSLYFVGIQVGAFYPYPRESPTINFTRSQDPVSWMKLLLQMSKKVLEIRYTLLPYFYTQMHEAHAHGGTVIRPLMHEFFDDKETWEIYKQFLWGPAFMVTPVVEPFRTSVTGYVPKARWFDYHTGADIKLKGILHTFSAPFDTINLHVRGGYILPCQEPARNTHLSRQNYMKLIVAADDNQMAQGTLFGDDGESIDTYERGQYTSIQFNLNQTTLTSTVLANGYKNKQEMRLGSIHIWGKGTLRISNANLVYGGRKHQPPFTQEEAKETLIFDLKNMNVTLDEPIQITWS

Regarding `O[C@H]1[C@H](O)[C@H](O)CN2CC[C@H](O)[C@H]12`, the result with Aspergillus niger [1] was Active. Also, the inhibition (as a rule, the relative decrease from the control value, in per cent) with Aspergillus niger [2] came out at 50%.
On to `O[C@H]1[C@H](O)[C@@H](O)CN2CC[C@H](O)[C@H]12`, for which the result in the assay with Aspergillus niger [1] was Active. The compound further showed an inhibition in the assay with Aspergillus niger [3] of 50%.
As for `O[C@H]1C[C@H](O)[C@H]2[C@@H](O)CCN2C1`, the result (in the assay filed under Bos taurus [4]; in [5]; in the assay on Aspergillus niger [6]; in the assay filed under Bos taurus [7]; in assay [8]; in the assay with Prunus dulcis) was inactive. Further, the outcome in the assay on Aspergillus niger [18], in the assay with Canavalia ensiformis and in the assay with Aspergillus niger [19] was inactive. Further, the outcome (in the assay filed under Bos taurus [9]; in [10]; with Saccharomyces cerevisiae [11]; in assay [12]; in the assay with Aspergillus niger [1]) was Active. The inhibition in the assay on Saccharomyces cerevisiae [13] is 50%; in assay [14], 35%; in [15], 30%; in the assay listed under Bos taurus [16], 20%; with Aspergillus niger [17] it was 50%.
